Assay results reported in ChEMBL document CHEMBL3813592, “Discovery of Novel Tricyclic Heterocycles as Potent and Selective DPP-4 Inhibitors for the Treatment of Type 2 Diabetes” (ACS Med Chem Lett, 2016).
Active and inactive are the calls of the source. No cut-off for these calls is given here.

Tests used:
[1] = Intrinsic clearance in human hepatocytes assessed per 10^6 cells at 1 uM after 30 to 120 mins by LC-MS/MS analysis; assay type: ADME, cell-based, Hepatocyte; details: read-out: CLH
[2] = Intrinsic clearance in rat hepatocytes assessed per 10^6 cells at 1 uM after 30 to 120 mins by LC-MS/MS analysis; assay type: ADME, cell-based, Hepatocyte; details: read-out: CLH
[3] = Intrinsic clearance in cynomolgus monkey hepatocytes assessed per 10^6 cells at 1 uM after 30 to 120 mins by LC-MS/MS analysis; assay type: ADME, cell-based, Macaca fascicularis, Hepatocyte; details: read-out: CLH
[4] = Intrinsic clearance in dog hepatocytes assessed per 10^6 cells at 1 uM after 30 to 120 mins by LC-MS/MS analysis; assay type: ADME, cell-based, Canis lupus familiaris, Hepatocyte; details: read-out: CLH
Mus musculus [5] = test: Antidiabetic activity in po dosed C57BL/6N mouse assessed as reduction in blood glucose AUC after 60 mins followed by dextrose challenge by OGTT; assay type: functional, organism-based
Mus musculus [6] = test: Antidiabetic activity in C57BL/6N mouse assessed as reduction in blood glucose AUC at 0.3 mg/kg, po administered for 60 mins followed by dextrose challenge by OGTT; assay type: functional; set-up: scale not given: the % may be the effect or the level left
Mus musculus [7] = test: Antidiabetic activity in C57BL/6N mouse assessed as reduction in blood glucose AUC at 1 mg/kg, po administered for 60 mins followed by dextrose challenge by OGTT; assay type: functional; set-up: scale not given: the % may be the effect or the level left
Mus musculus [8] = test: Antidiabetic activity in C57BL/6N mouse assessed as reduction in blood glucose AUC at 3 mg/kg, po administered for 60 mins followed by dextrose challenge by OGTT; assay type: functional; set-up: scale not given: the % may be the effect or the level left
Mus musculus [9] = test: Antidiabetic activity in C57BL/6N mouse assessed as reduction in blood glucose AUC at 10 mg/kg, po administered for 60 mins followed by dextrose challenge by OGTT; assay type: functional; set-up: scale not given: the % may be the effect or the level left
[10] = Plasma concentration in C57BL/6N mouse at 0.3 mg/kg, po administered for 60 mins followed by dextrose challenge during OGTT method; assay type: ADME, organism-based
[11] = Plasma concentration in C57BL/6N mouse at 1 mg/kg, po administered for 60 mins followed by dextrose challenge during OGTT method; assay type: ADME, organism-based
[12] = Plasma concentration in C57BL/6N mouse at 3 mg/kg, po administered for 60 mins followed by dextrose challenge during OGTT method; assay type: ADME, organism-based
[13] = Plasma concentration in C57BL/6N mouse at 10 mg/kg, po administered for 60 mins followed by dextrose challenge during OGTT method; assay type: ADME, organism-based
Mus musculus [14] = test: Ex vivo inhibition of DPP4 in C57BL/6N mouse blood at 3 to 10 mg/kg, po measured after 2 to 6 hrs; assay type: functional
Mus musculus [15] = test: Ex vivo inhibition of DPP4 in C57BL/6N mouse blood at 1 to 10 mg/kg, po measured after 24 hrs; assay type: functional, organism-based

Row | SMILES | hepatocyte CLint at 1 µM [1] [µL/min/1e6 cells] | hepatocyte CLint at 1 µM [2] [µL/min/1e6 cells] | hepatocyte CLint at 1 µM [3] [µL/min/1e6 cells] | hepatocyte CLint at 1 µM [4] [µL/min/1e6 cells] | Activity (Mus musculus [5]) | Activity (Mus musculus [6]) [%] | Activity (Mus musculus [7]) [%] | Activity (Mus musculus [8]) | Activity (Mus musculus [9]) [%] | concentration at 1 h [10] [nM] | concentration at 1 h [11] [nM] | concentration at 1 h [12] [nM] | concentration at 1 h [13] [nM] | inhibition (INH) (Mus musculus [14]) [%] | inhibition (Mus musculus [15])
1 | CN1C(=O)Cn2c1nc1nc(N3CCC[C@@H](N)C3)n(Cc3cc(F)ccc3C#N)c1c2=O | 0.1 | 0.3 | < 1 | < 1 | Dose-dependent effect | 38 | 52 | 64% | 63 | 2 | 10 | 70 | 235 | >80 | inactive
2 | Cn1c(=O)cc(N2CCC[C@@H](N)C2)n(Cc2ccccc2C#N)c1=O | – | – | – | – | – | – | – | Active | – | – | – | – | – | – | –
